# Data as given in patent publication US11208413B2, “Pyrimidopyrimidinones useful as wee-1 kinase inhibitors” (ALMAC DISCOVERY LIMITED, priority 2017, dated 2021).
# Where two headings read alike, the source gives them in different places.
# Legend:
# pCDC2 = assay: Wee-1 potency in cells (pCDC2 value); type: cell-based
# Kinetic solubility = type: physicochemical; conditions: kinetic from dmso stock
# Procedure: (§1) The test methods employed to determine Wee-1 kinase inhibitory effect, Wee-1 potency in cells and kinetic solubility were the same as those taught in WO 2015/092431 (see page 350 to 358). The other test methods employed were as follows: • i. Determination of Caco-2 permeability at pH 6.5 (pH7.4 for Comparative Example 6) was carried out at Cyprotex Ltd using standard protocols and SOPs. • ii. […] Dosing was as follows: single oral dose 5 mg/kg; single intravenous dose 1 mg/kg. • iii. Determination of pharmacokinetic parameters (CUT1/2/AUC/F %) in male Sprague-Dawley rats on Comparative Example 18 was carried out at BioDuro using standard protocols and SOPs. Dosing was as follows: oral dosing 5 mg/kg; intravenous dosing 1 mg/kg • iv. […] Dosing was as follows: repeated oral dose of 30 mg/kg, once a day for 7 days. Concentrations were measured at 4 h post dose on day 7. • v. Determination of tumor:plasma concentration ratio in the tumor-bearing mouse was carried out at Axis Bioservices Ltd using standard protocols and SOPs. Dosing was as follows: single oral dose of 30 mg/kg. • vi. Determination of CYP3A4/5 time-dependent inhibition (CYP3A4/5 IC50 shift value) was carried out at Cyprotex Ltd using standard protocols and SOPs. The in-vitro test system was: pooled human liver microsomes; a 30-min preincubation step with and without NADPH was included to observe the IC50 shift. • vii. Determination of the formation of reactive metabolites was carried out at Admescope Ltd using standard protocols and SOPs. The in-vitro test system was: human hepatocytes; the duration of incubation was: 2 hours; the technique for metabolite analysis was: LC-MS/MS.
# Wee-1 kinase = Wee-1 kinase (Homo sapiens, UniProt P30291); assay: Wee-1 kinase inhibitory effect (Wee-1 IC50); type: biochemical; conditions: read-out: Wee1 IC50
# Sequence of Wee-1 kinase (P30291 whole entry): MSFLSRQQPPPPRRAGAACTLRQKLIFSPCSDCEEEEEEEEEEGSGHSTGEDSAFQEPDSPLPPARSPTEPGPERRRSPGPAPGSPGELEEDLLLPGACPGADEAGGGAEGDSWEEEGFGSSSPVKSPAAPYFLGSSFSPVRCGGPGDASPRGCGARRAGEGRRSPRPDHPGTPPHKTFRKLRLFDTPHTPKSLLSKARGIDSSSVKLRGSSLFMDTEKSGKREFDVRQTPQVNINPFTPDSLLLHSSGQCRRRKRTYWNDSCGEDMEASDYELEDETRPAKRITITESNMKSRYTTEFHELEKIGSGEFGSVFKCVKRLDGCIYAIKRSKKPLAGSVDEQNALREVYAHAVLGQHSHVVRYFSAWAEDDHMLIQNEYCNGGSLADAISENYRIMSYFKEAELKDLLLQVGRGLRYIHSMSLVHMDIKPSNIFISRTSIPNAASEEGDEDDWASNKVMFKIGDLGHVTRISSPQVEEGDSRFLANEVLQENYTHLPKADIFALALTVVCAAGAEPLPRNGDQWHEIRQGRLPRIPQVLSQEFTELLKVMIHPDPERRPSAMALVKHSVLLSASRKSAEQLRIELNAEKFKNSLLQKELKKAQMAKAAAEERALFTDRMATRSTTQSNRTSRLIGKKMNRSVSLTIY
# [1] = Brain:plasma concentration ratio in healthy mouse; type: in vivo; conditions: oral 30 mg/kg once a day for 7 days, 4 h post dose on day 7, read-out: Mouse tissue distribution brain/plasma ratio
# Procedure: as §1, with “Determination of the formation of reactive metabolites was carried out at Admescope Ltd using standard protocols and SOPs. The in-vitro test system was: human hepatocytes; the duration of incubation was: 2 hours; the technique for metabolite analysis was: LC-MS/MS.” left out
# [2] = Tumor:plasma concentration ratio in tumor-bearing mouse; type: in vivo; conditions: single oral dose 30 mg/kg, read-out: Mouse tissue distribution tumor/plasma ratio
# Procedure: as §1, with “Determination of the formation of reactive metabolites was carried out at Admescope Ltd using standard protocols and SOPs. The in-vitro test system was: human hepatocytes; the duration of incubation was: 2 hours; the technique for metabolite analysis was: LC-MS/MS.” left out
# [3] = Caco-2 permeability (Papp A-B); type: in vitro ADME; conditions: human
# Procedure: as §1
# human hepatocytes = assay: Formation of reactive metabolites in human hepatocytes; type: in vitro ADME; conditions: 2 hours incubation, LC-MS/MS
# Procedure: as §1, with “Determination of the formation of reactive metabolites was carried out at Admescope Ltd using standard protocols and SOPs. The in-vitro test system was: human hepatocytes; the duration of incubation was: 2 hours; the technique for metabolite analysis was: LC-MS/MS.” left out
# [4] = Rat pharmacokinetics (CL, T1/2, AUC, F %); type: in vivo; conditions: male Sprague-Dawley rats; for clearance: single intravenous dose 1 mg/kg, plasma clearance, read-out: Rat PK CL; for AUC(0-inf): single oral dose 5 mg/kg, plasma exposure, read-out: Rat PK AUCinf; for half-life / bioavailability: plasma, intravenous 1 mg/kg; for half-life: elimination half-life, read-out: Rat PK T1/2 (converted); for bioavailability: oral 5 mg/kg, oral bioavailability, read-out: Rat PK F %
# Procedure: as §1
# CYP3A4/5 = CYP3A4/5 time-dependent inhibition (IC50 shift); type: in vitro ADME; conditions: pooled human liver microsomes, 30-min preincubation with and without NADPH
# Procedure: as §1, with “Determination of the formation of reactive metabolites was carried out at Admescope Ltd using standard protocols and SOPs. The in-vitro test system was: human hepatocytes; the duration of incubation was: 2 hours; the technique for metabolite analysis was: LC-MS/MS.” left out
# [5] = Solubility in fasted state simulated gastric fluid (FaSSGF); type: physicochemical
# [6] = Chemical stability in solution; type: physicochemical; conditions: Buffer at pH 7.4 and in DMSO
# [7] = pH 6.5, read-out: caco-2 Papp A-B pH 6.5
SMILES,EC50 (pCDC2),solubility kinetic (Kinetic solubility),IC50 (Wee-1 kinase),Kp at 4 h [1],Kp [2],"Papp A→B ([3]; pH 7.4, read-out: caco-2 Papp A-B (pH 7.4))",Reactive metabolite detected (human hepatocytes),clearance [4],AUC(0-inf) [4],half-life [4],bioavailability [4],CYP3A4/5 IC50 shift (CYP3A4/5),"Papp A→B [3, 7]",solubility in fasted state simulated gastric fluid (FaSSGF) [5],chemical stability in solution [6]
"Cc1cc(Nc2ncc3c(n2)N(C)CN(c2c(C)cccc2Cl)C3=O)ccc1C1CCN(C)CC1 [CE 1, 3-(2-chloro-6-methylphenyl)-1-methyl-7-((3-methyl-4-(1-methylpiperidin-4-yl)phenyl)amino)-2,3-dihydropyrimido[4,5-d]pyrimidin-4(1H)-one]",695 nM,189 µM,2.8 nM,–,–,–,–,–,–,–,–,–,–,–,–
Cc1cc(Nc2ncc3c(n2)N(C)CN(c2c(Cl)cccc2Cl)C3=O)ccc1N1CCNCC1 [CE 6],223 nM,170 µM,2.7 nM,0.16,5.7,6.6 ×10⁻⁶ cm/s,yes,26 mL/min/kg,1360 ng·h/mL,3.7 h,41%,2.3-3.0,–,–,–
Cc1cc(Nc2ncc3c(n2)N(C)CN(c2c(Cl)cccc2Cl)C3=O)ccc1C1CCNCC1 [CE 18],223 nM,200 µM,3.7 nM,–,–,–,–,48 mL/min/kg,120 ng·h/mL,–,7%,–,0.3 ×10⁻⁶ cm/s,–,–
CN1CCC(c2ccc(Nc3ncc4c(n3)N(C)CN(c3c(Cl)cccc3Cl)C4=O)cc2)CC1 [CE 95],378 nM,123 µM,7.9 nM,–,–,–,–,–,–,–,–,–,–,–,–
CN1CCC(c2ccc(Nc3ncc4c(n3)N(C)CN(c3c(Cl)cccc3Cl)C4=O)cc2CO)CC1 [CE 165],347 nM,194 µM,3.1 nM,–,–,–,–,27 mL/min/kg,397 ng·h/mL,2.1 h,8%,–,0.3 ×10⁻⁶ cm/s,–,–

# Results, then the molecule that gave them:
EC50 (pCDC2),solubility kinetic (Kinetic solubility),IC50 (Wee-1 kinase),Kp at 4 h [1],Kp [2],"Papp A→B ([3]; pH 7.4, read-out: caco-2 Papp A-B (pH 7.4))",Reactive metabolite detected (human hepatocytes),clearance [4],AUC(0-inf) [4],half-life [4],bioavailability [4],CYP3A4/5 IC50 shift (CYP3A4/5),"Papp A→B [3, 7]",solubility in fasted state simulated gastric fluid (FaSSGF) [5],chemical stability in solution [6],SMILES
371 nM,55 µM,3.2 nM,–,–,–,–,–,–,–,–,–,8.1 ×10⁻⁶ cm/s,–,–,Cc1cc(Nc2ncc3c(n2)N(C)CN(c2c(Cl)cccc2Cl)C3=O)ccc1C1=CCN(C)CC1 [CE 178]
502 nM,60 µM,3.1 nM,–,–,–,–,–,–,–,–,–,–,–,–,COc1cc(Nc2ncc3c(n2)N(C)CN(c2c(Cl)cccc2Cl)C3=O)ccc1C1CCN(C)CC1 [CE 183]
–,215 µM,–,0.69,4,–,no,14 mL/min/kg,1320 ng·h/mL,4.5 h,35%,–,8.9 ×10⁻⁶ cm/s,improved solubility,improved chemical stability in solution,"Cc1cc(Nc2ncc3c(n2)N(C)CN(c2c(Cl)cccc2Cl)C3=O)ccc1C1CCN(C)CC1 [Example 1, 3-(2,6-dichlorophenyl)-1-methyl-7-((3-methyl-4-(1-methylpiperidin-4-yl)phenyl)amino)-2,3-dihydropyrimido[4,5-d]pyrimidin-4(1H)-one]"
